This experiment deals with control neuropathic mice. In words: Pain behaviors in control neuropathic mice not expressing hM4-mCherry in the BLA. Format: in vivo. As to conditions: absence of hM4 expression, CNO 10 mg/kg, morphine as positive control. From the text: To induce a chronic pain state, we used a modified version of the Spared Nerve Injury (SNI) model of neuropathic pain, as previously described (70). This model entails surgical section of two of the sciatic nerve branches (common peroneal and tibial branches) while sparing the third (sural branch). […] To perform this peripheral nerve injury procedure, anesthesia was induced and maintained throughout surgery with isoflurane (4% induction, 1.5% maintenance in oxygen). The left hind leg was shaved and wiped clean with alcohol and betadine. We made a 1-cm incision in the skin of the mid-dorsal thigh, approximately where the sciatic nerve trifurcates. The biceps femoris and semimembranosus muscles were gently separated from one another with blunt scissors, thereby creating a <1-cm opening between the muscle groups to expose the common peroneal, tibial, and sural branches of the sciatic nerve. Next, −2 mm of both the common peroneal and tibial nerves were transected and removed, without suturing and with care not to distend the sural nerve. The leg muscles are left uncultured and the skin was closed with tissue adhesive (3M Vetbond), followed by a Betadine application. During recovery from surgery, mice were placed under a heat lamp until awake and achieved normal balanced movement. Mice were then returned to their home cage and closely monitored over the following three days for well-being.
To evaluate mechanical reflexive sensitivity, we used a logarithmically increasing set of 8 von Frey filaments (Stoelting), ranging in gram force from 0.07- to 6.0-g (93). These filaments were applied perpendicular to the plantar hindpaw with sufficient force to cause a slight bending of the filament. […] Using the Up-Down statistical method, the 50% withdrawal mechanical threshold scores were calculated for each mouse and then averaged across the experimental groups. The response frequency was calculated as the number of positive responses out of 10 stimulations, delivered at 30-s intervals.
To evaluate affective-motivational responses evoked by thermal stimulation (81), we applied either a single, unilateral 50-μL drop of water (5, 30, or 55° C.) or acetone (evaporative cooling) to the left hindpaw, and the duration of attending behavior was collected for up to 60 s after the stimulation. […] The track was subdivided into 25 temperature zones (4.8-cm D per zone), and we assessed the temperature at the center of each zone by a K-probe thermocouple. […] A video camera placed above the track recorded the position of the mouse within the temperature zones, and videos were later analyzed using a video-tracking software (Etho-vision, Noldus) for duration of zone occupancy, zone visits, distance, velocity, and acceleration.

Regarding `CN1CC[C@]23c4c5ccc(O)c4O[C@H]2[C@@H](O)C=C[C@H]3[C@H]1C5` [Morphine], the affective-motivational behaviors result (acetone drop) is “reduced”. The reflex behaviors entry (von Frey filaments) is given as “reduced”.

For the origin of these results see patent US20210220489A1, “AMYGDALAR NEURAL ENSEMBLE THAT ENCODES THE UNPL[…] PAIN” (The Board of Trustees of the Leland Stanford Junior …, priority 2020, published 2021).
